In patent US11780826B2 (Amgen Inc., priority 2017, dated 2023):

System: Bovine cardiac myofibrils
Assay: In vitro model of dose-dependent myofibril ATPase modulation (AC1.4, pyruvate kinase/lactate dehydrogenase-coupled ATPase assay at pCa25)
Format: biochemical
Conditions: concentration at which ATPase activity was 1.4-fold higher than the bottom of the dose curve, mean of a minimum of two independent tests
Procedure, shortened: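 Coupled-enzyme ATPase on bovine heart myofibrils, 1 mM ATP, EGTA/CaCl2 buffered; 340 nm readout.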

Compound | AC1.4
NC(=O)C1(c2cccc(C(=O)N3[C@@H](C(=O)N[C@@H](c4ccc(C(F)(F)F)cc4F)C4COC4)C[C@H]4C[C@H]43)c2)CC1 [Example 349, (1R,3R,5R)-2-(3-(1-carbamoylcyclopropyl)benzoyl)-N-((R)-(2-fluoro-4-(trifluoromethyl)phenyl)(3-oxetanyl)methyl)-2-azabicyclo[3.1.0]hexane-3-carboxamide] | 1.0296 µM
O=C(N[C@@H](c1ccc(C(F)(F)F)cc1F)C1COC1)[C@H]1C[C@H]2C[C@H]2N1C(=O)c1ccccc1NC(=O)C(F)(F)F [Example 351, (1R,3R,5R)-N-((R)-(2-fluoro-4-(trifluoromethyl)phenyl)(3-oxetanyl)methyl)-2-(2-(2,2,2-trifluoroacetamido)benzoyl)-2-azabicyclo[3.1.0]hexane-3-carboxamide] | 1.0354 µM
CS(=O)(=O)c1cccc(C(=O)N2C[C@@H](F)C[C@@H]2C(=O)N[C@@H](c2ccc(Cl)cc2F)C2COC2)c1 [Example 352, (4S)-N-((R)-(4-chloro-2-fluorophenyl)(3-oxetanyl)methyl)-4-fluoro-1-(3-(methylsulfonyl)benzoyl)-D-prolinamide] | 0.9758 µM
N#C[C@H]1C[C@H](S(=O)(=O)c2cccc(C(=O)N3CCCC[C@@H]3C(=O)NCc3ccc(C(F)(F)F)nc3)c2)C1 [Example 355, (2R)-1-((3-((trans-3-cyanocyclobutyl)sulfonyl)phenyl)carbonyl)-N-((6-(trifluoromethyl)-3-pyridinyl)methyl)-2-piperidinecarboxamide] | 1.0472 µM
N#CC1CN(S(=O)(=O)N2CCC[C@H](C(=O)N3CCC[C@@H]3C(=O)NCc3cc(F)cc(F)c3F)C2)C1 [Example 356, 1-(((3S)-1-((3-cyano-1-azetidinyl)sulfonyl)-3-piperidinyl)carbonyl)-N-(2,3,5-trifluorobenzyl)-D-prolinamide] | 1.0535 µM
NS(=O)(=O)c1cccc(C(=O)N2CCCC[C@@H]2C(=O)N[C@@H](c2ccc(C(F)(F)F)cc2F)C2CC2)c1 [Example 359, (2R)-N-((R)-cyclopropyl(2-fluoro-4-(trifluoromethyl)phenyl)methyl)-1-(3-sulfamoylbenzoyl)-2-piperidinecarboxamide] | 1.1055 µM
N#CC1CN(S(=O)(=O)N2CCC[C@H](C(=O)N3CCC[C@@H]3C(=O)NCc3ccc(F)cc3F)C2)C1 [Example 360, 1-(((3S)-1-((3-cyano-1-azetidinyl)sulfonyl)-3-piperidinyl)carbonyl)-N-(2,4-difluorobenzyl)-D-prolinamide] | 1.11 µM
O=C(N[C@@H](c1cc(F)c(C(F)(F)F)cc1F)C1CC1)[C@H]1C[C@H]2C[C@H]2N1C(=O)c1cncc(C(F)(F)F)c1 [Example 361, (1R,3R,5R)-N-((R)-cyclopropyl(2,5-difluoro-4-(trifluoromethyl)phenyl)methyl)-2-((5-(trifluoromethyl)-3-pyridinyl)carbonyl)-2-azabicyclo[3.1.0]hexane-3-carboxamide] | 1.1125 µM
CS(=O)(=O)c1cccc(C(=O)N2C[C@@H](F)C[C@@H]2C(=O)N[C@@H](c2ccc(Cl)c(F)c2)C2COC2)c1 [Example 365, (4S)-N-((R)-(4-chloro-3-fluorophenyl)(3-oxetanyl)methyl)-4-fluoro-1-(3-(methylsulfonyl)benzoyl)-D-prolinamide] | 1.139 µM
CC1(O)CN(S(=O)(=O)c2cccc(C(=O)N3CCC[C@@H]3C(=O)NCc3ccc(C(F)(F)F)cc3F)c2)C1 [Example 368, N-(2-fluoro-4-(trifluoromethyl)benzyl)-1-(3-((3-hydroxy-3-methyl-1-azetidinyl)sulfonyl)benzoyl)-D-prolinamide] | 1.2 µM
N#CC1CN(S(=O)(=O)N2CCC[C@H](C(=O)N3CCC[C@@H]3C(=O)NCc3ccc(C(F)(F)F)cn3)C2)C1 [Example 373, 1-(((3S)-1-((3-cyano-1-azetidinyl)sulfonyl)-3-piperidinyl)carbonyl)-N-((5-(trifluoromethyl)-2-pyridinyl)methyl)-D-prolinamide] | 1.2258 µM
O=C(N[C@@H](c1cc(F)c(Cl)cc1F)C1CC1)[C@H]1C[C@H]2C[C@H]2N1C(=O)c1cncc(C(F)(F)F)c1 [Example 374, (1R,3R,5R)-N-((R)-(4-chloro-2,5-difluorophenyl)(cyclopropyl)methyl)-2-((5-(trifluoromethyl)-3-pyridinyl)carbonyl)-2-azabicyclo[3.1.0]hexane-3-carboxamide] | 1.2265 µM
CS(=O)(=O)c1cccc(C(=O)N2[C@@H](C(=O)N[C@@H](c3ccc(C(F)(F)F)cc3)C3COC3)C[C@H]3C[C@H]32)c1 [Example 375, (1R,3R,5R)-2-(3-(methylsulfonyl)benzoyl)-N-((R)-3-oxetanyl(4-(trifluoromethyl)phenyl)methyl)-2-azabicyclo[3.1.0]hexane-3-carboxamide] | 1.2153 µM
N#CC1CN(S(=O)(=O)c2cccc(C(=O)N3CCC[C@@H]3C(=O)NCc3ncc(Cl)s3)c2)C1 [Example 376, N-((5-chloro-1,3-thiazol-2-yl)methyl)-1-((3-((3-cyano-1-azetidinyl)sulfonyl)phenyl)carbonyl)-D-prolinamide] | 1.2296 µM
O=C(N[C@@H](c1ccc(C(F)(F)F)cc1F)C1CC1)[C@H]1CCCN1C(=O)c1cccc(Cl)c1 [Example 378, 1-(3-chlorobenzoyl)-N-((R)-cyclopropyl(2-fluoro-4-(trifluoromethyl)phenyl)methyl)-D-prolinamide] | 1.227 µM

The next lines start with the values.

AC1.4 | Compound
1.0349 µM | O=C(NCc1ccc(C(F)(F)F)cc1)[C@H]1CCCN1C(=O)c1cccc(S(=O)(=O)N2CC3(CC3)C2)c1 [Example 350, 1-((3-(5-azaspiro[2.3]hex-5-ylsulfonyl)phenyl)carbonyl)-N-(4-(trifluoromethyl)benzyl)-D-prolinamide]
1.0398 µM | N#CC1CN(S(=O)(=O)N2CCC[C@H](C(=O)N3CCC[C@@H]3C(=O)NCc3cccc(C(F)(F)F)c3)C2)C1 [Example 353, 1-(((3S)-1-((3-cyano-1-azetidinyl)sulfonyl)-3-piperidinyl)carbonyl)-N-(3-(trifluoromethyl)benzyl)-D-prolinamide]
1.0425 µM | CS(=O)(=O)c1cccc(C(=O)N2C[C@H](C(F)F)C[C@@H]2C(=O)N[C@@H](c2ccc(C(F)(F)F)cc2F)C2CC2)c1 [Example 354, (4R)-N-((R)-cyclopropyl(2-fluoro-4-(trifluoromethyl)phenyl)methyl)-4-(difluoromethyl)-1-(3-(methylsulfonyl)benzoyl)-D-prolinamide]
1.0947 µM | Cc1cc(CNC(=O)[C@H]2CCCN2C(=O)[C@H]2CCCN(S(=O)(=O)N3CC(C#N)C3)C2)cc(C(F)(F)F)c1 [Example 358, 1-(((3S)-1-((3-cyano-1-azetidinyl)sulfonyl)-3-piperidinyl)carbonyl)-N-(3-methyl-5-(trifluoromethyl)benzyl)-D-prolinamide]
1.0375 µM | CS(=O)(=O)c1cncc(C(=O)N2CCC[C@@H]2C(=O)N[C@@H](c2cc(F)c(Cl)cc2F)C2CC2)c1 [Example 362, N-((R)-(4-chloro-2,5-difluorophenyl)(cyclopropyl)methyl)-1-((5-(methylsulfonyl)-3-pyridinyl)carbonyl)-D-prolinamide]
1.143 µM | CN(Cc1ccc(C(F)(F)F)cc1)C(=O)[C@H]1CCCN1C(=O)[C@H]1CCCN(S(=O)(=O)N2CC(C#N)C2)C1 [Example 363, 1-(((3S)-1-((3-cyano-1-azetidinyl)sulfonyl)-3-piperidinyl)carbonyl)-N-methyl-N-(4-(trifluoromethyl)benzyl)-D-prolinamide]
1.1445 µM | N#Cc1cccc(C(=O)N2[C@@H](C(=O)N[C@@H](c3ccc(C(F)(F)F)cc3F)C3COC3)C[C@H]3C[C@H]32)c1 [Example 366, (1R,3R,5R)-2-(3-cyanobenzoyl)-N-((R)-(2-fluoro-4-(trifluoromethyl)phenyl)(3-oxetanyl)methyl)-2-azabicyclo[3.1.0]hexane-3-carboxamide]
1.1962 µM | O=C(NCc1ccc(C(F)(F)F)cc1)[C@H]1CCCN1C(=O)[C@H]1CCCN(S(=O)(=O)N2CC(n3cccc3)C2)C1 [Example 367, 1-(((3S)-1-((3-(1H-pyrrol-1-yl)-1-azetidinyl)sulfonyl)-3-piperidinyl)carbonyl)-N-(4-(trifluoromethyl)benzyl)-D-prolinamide]
1.1795 µM | O=C(N[C@@H](c1ccc(C(F)(F)F)cc1F)C1CC1)[C@H]1CCCN1C(=O)c1cccc(C2CC2)c1 [Example 369, 1-(3-cyclopropylbenzoyl)-N-((R)-cyclopropyl(2-fluoro-4-(trifluoromethyl)phenyl)methyl)-D-prolinamide]
1.216 µM | O=C(NCc1ccc(C(F)(F)F)cc1)[C@H]1CCCN1C(=O)[C@H]1CCCN(S(=O)(=O)N2CC(O)(c3ccccc3)C2)C1 [Example 371, 1-(((3S)-1-((3-hydroxy-3-phenyl-1-azetidinyl)sulfonyl)-3-piperidinyl)carbonyl)-N-(4-(trifluoromethyl)benzyl)-D-prolinamide]
1.2085 µM | CC(=O)Nc1ccccc1C(=O)N1[C@@H](C(=O)N[C@@H](c2ccc(C(F)(F)F)cc2F)C2CC2)C[C@H]2C[C@H]21 [Example 372, (1R,3R,5R)-2-(2-acetamidobenzoyl)-N-((R)-cyclopropyl(2-fluoro-4-(trifluoromethyl)phenyl)methyl)-2-azabicyclo[3.1.0]hexane-3-carboxamide]
1.216 µM | CS(=O)(=O)c1cccc(C(=O)N2C=CC[C@@H]2C(=O)N[C@@H](c2ccc(C(F)(F)F)cc2F)C2CC2)c1 [Example 377, (2R)—N—((R)-cyclopropyl(2-fluoro-4-(trifluoromethyl)phenyl)methyl)-1-(3-(methylsulfonyl)benzoyl)-2,3-dihydro-1H-pyrrole-2-carboxamide]
